Measurements from ChEMBL document CHEMBL4257548, “Phenothiazine antioxidants increase mitochondrial biogenesis and frataxin levels in Friedreich's ataxia cells” (Medchemcomm, 2018).
Calls of active or inactive are those of the source. The rule behind the calls is not given here.

How the values were obtained:
GM15850 [1] = assay: Inhibition of ATP production in human GM15850 cells after 24 hrs by Vialight reagent based luminescence assay; format: functional, cell-based
GM16216 [2] = assay: Inhibition of ATP production in human GM16216 cells after 24 hrs by Vialight reagent based luminescence assay; format: functional, cell-based
GM15850 [3] = assay: Cytotoxicity against human GM15850 cells at 2.5 uM after 24 to 48 hrs by live/dead staining-based flow cytometry; format: cell-based; details: gm15850, 2.5 µM
GM15850 [4] = assay: Effect on mitochondrial membrane potential in human GM15850 cells assessed as loss of mitochondrial membrane potential at 0.25 uM after 16 hrs by JC1 staining based flow cytometry (reference value: 13%); format: functional
GM15850 [5] = assay: Effect on ATP production in human GM15850 cells at 0.1 uM after 24 hrs by Vialight reagent based luminescence assay; format: functional, cell-based
GM15850 [6] = assay: Cytoprotection against DEM-induced toxicity in human GM15850 cells assessed as increase in cell viability at 0.5 to 2.5 uM pretreated for 16 hrs followed by DEM addition and measured after 5 hrs by live/dead staining based flow cytometry; format: functional
GM16216 [7] = assay: Effect on mitochondrial membrane potential in human GM16216 cells assessed as loss of mitochondrial membrane potential at 0.25 uM after 16 hrs by JC1 staining based flow cytometry (reference value: 13%); format: functional
GM16216 [8] = assay: Effect on mitochondrial membrane potential in human GM16216 cells assessed as intact mitochondrial membrane at 0.25 uM after 16 hrs by JC1 staining based flow cytometry (reference value: 87%); format: functional
GM16216 [9] = assay: Effect on ATP production in human GM16216 cells at 0.1 uM after 24 hrs by Vialight reagent based luminescence assay; format: functional, cell-based
GM15850 [10] = assay: Effect on mitochondrial membrane potential in human GM15850 cells assessed as intact mitochondrial membrane at 0.25 uM after 16 hrs by JC1 staining based flow cytometry (reference value: 87%); format: functional
GM16216 [11] = assay: Cytoprotection against DEM-induced toxicity in human GM16216 cells assessed as increase in cell viability at 0.5 to 2.5 uM pretreated for 16 hrs followed by DEM addition and measured after 5 hrs by live/dead staining based flow cytometry; format: functional
GM16216 [12] = assay: Cytotoxicity against human GM16216 cells at 2.5 uM after 24 to 48 hrs by live/dead staining-based flow cytometry; format: cell-based; details: gm16216, 2.5 µM
GM16216 [13] = assay: Increase in frataxin expression in human GM16216 cells at 250 nM after 24 to 48 hrs by ELISA; format: functional, cell-based
GM16216 [14] = assay: Increase in ATP production in human GM16216 cells at 0.1 to 0.5 uM after 24 hrs by Vialight reagent based luminescence assay; format: functional, cell-based
GM16216 [15] = assay: Increase in frataxin expression in human GM16216 cells at 50 nM after 24 to 48 hrs by ELISA; format: functional, cell-based
GM16216 [16] = assay: Cytotoxicity against human GM16216 cells at 0.25 to 2.5 uM after 24 to 48 hrs by live/dead staining-based flow cytometry; format: cell-based; details: gm16216, 2.5 µM
GM16216 [17] = assay: Inhibition of ATP production in human GM16216 cells at 2.5 uM after 24 hrs by Vialight reagent based luminescence assay; format: functional, cell-based
GM15850 [18] = assay: Cytotoxicity against human GM15850 cells at 0.25 to 2.5 uM after 24 to 48 hrs by live/dead staining-based flow cytometry; format: cell-based; details: gm15850, 2.5 µM
GM15850 [19] = assay: Inhibition of ATP production in human GM15850 cells at 2.5 uM after 24 hrs by Vialight reagent based luminescence assay; format: functional, cell-based
GM15850 [20] = assay: Increase in frataxin expression in human GM15850 cells at 250 nM after 24 to 48 hrs by ELISA; format: functional, cell-based
GM15850 [21] = assay: Increase in ATP production in human GM15850 cells at 0.1 to 0.5 uM after 24 hrs by Vialight reagent based luminescence assay; format: functional, cell-based
GM15850 [22] = assay: Increase in frataxin expression in human GM15850 cells at 50 nM after 24 to 48 hrs by ELISA; format: functional, cell-based
GM16216 [23] = assay: Induction of mitochondrial biogenesis in human GM16216 cells assessed as ratio of COX1 to SDH-A protein levels at 50 after 48 hrs by ELISA relative to control; format: functional
GM16216 [24] = assay: Effect on frataxin expression in human GM16216 cells at 50 nM after 48 hrs by ELISA relative to control; format: functional
GM15850 [25] = assay: Effect on frataxin expression in human GM15850 cells at 50 nM after 48 hrs by ELISA relative to control; format: functional
GM15850 [26] = assay: Induction of mitochondrial biogenesis in human GM15850 cells assessed as ratio of COX1 to SDH-A protein levels at 50 after 48 hrs by ELISA relative to control; format: functional
GM16216 [27] = assay: Cytoprotection against DEM-induced toxicity in human GM16216 cells assessed as increase in cell viability at 0.1 to 2.5 uM pretreated for 16 hrs followed by DEM addition and measured after 5 hrs by live/dead staining based flow cytometry; format: functional
GM16216 [28] = assay: Effect on frataxin expression in human GM16216 cells at 250 nM after 24 hrs by ELISA relative to control; format: functional
GM15850 [29] = assay: Effect on frataxin expression in human GM15850 cells at 250 nM after 24 hrs by ELISA relative to control; format: functional
GM15850 [30] = assay: Effect on frataxin expression in human GM15850 cells at 250 nM after 48 hrs by ELISA relative to control; format: functional
GM15850 [31] = assay: Restoration of total aconitase activity in human GM15850 cells at 250 nM after 5 days by colorimetric method relative to control; format: functional
GM15850 [32] = assay: Induction of mitochondrial biogenesis in human GM15850 cells assessed as ratio of COX1 to SDH-A protein levels at 250 after 48 hrs by ELISA relative to control; format: functional
GM16216 [33] = assay: Restoration of total aconitase activity in human GM16216 cells at 50 nM after 5 days by colorimetric method relative to control; format: functional
GM16216 [34] = assay: Restoration of total aconitase activity in human GM16216 cells at 250 nM after 5 days by colorimetric method relative to control; format: functional
GM15850 [35] = assay: Cytoprotection against DEM-induced toxicity in human GM15850 cells assessed as increase in cell viability at 0.1 to 2.5 uM pretreated for 16 hrs followed by DEM addition and measured after 5 hrs by live/dead staining based flow cytometry; format: functional
GM16216 [36] = assay: Induction of mitochondrial biogenesis in human GM16216 cells assessed as ratio of COX1 to SDH-A protein levels at 250 after 48 hrs by ELISA relative to control; format: functional
GM16216 [37] = assay: Induction of mitochondrial biogenesis in human GM16216 cells assessed as ratio of COX1 to SDH-A protein levels at 50 after 24 hrs by ELISA relative to control; format: functional
GM15850 [38] = assay: Induction of mitochondrial biogenesis in human GM15850 cells assessed as ratio of COX1 to SDH-A protein levels at 50 after 24 hrs by ELISA relative to control; format: functional
GM15850 [39] = assay: Effect on frataxin expression in human GM15850 cells at 50 nM after 24 hrs by ELISA relative to control; format: functional
GM15850 [40] = assay: Induction of mitochondrial biogenesis in human GM15850 cells assessed as ratio of COX1 to SDH-A protein levels at 250 after 24 hrs by ELISA relative to control; format: functional
GM15850 [41] = assay: Restoration of total aconitase activity in human GM15850 cells at 50 nM after 5 days by colorimetric method relative to control; format: functional
GM16216 [42] = assay: Effect on frataxin expression in human GM16216 cells at 250 nM after 48 hrs by ELISA relative to control; format: functional
GM16216 [43] = assay: Induction of mitochondrial biogenesis in human GM16216 cells assessed as ratio of COX1 to SDH-A protein levels at 250 after 24 hrs by ELISA relative to control; format: functional
GM16216 [44] = assay: Effect on frataxin expression in human GM16216 cells at 50 nM after 24 hrs by ELISA relative to control; format: functional
GM16216 [45] = assay: Increase in frataxin expression in human GM16216 cells at 50 to 250 nM after 24 to 48 hrs by ELISA; format: functional, cell-based
GM15850 [46] = assay: Induction of mitochondrial biogenesis in human GM15850 cells assessed as increase in ratio of COX1 to SDH-A protein levels at 50 to 250 nM after 24 to 48 hrs by ELISA; format: functional, cell-based
GM15850 [47] = assay: Increase in frataxin expression in human GM15850 cells at 50 to 250 nM after 24 to 48 hrs by ELISA; format: functional, cell-based
GM16216 [48] = assay: Induction of mitochondrial biogenesis in human GM16216 cells assessed as increase in ratio of COX1 to SDH-A protein levels at 50 to 250 nM after 24 to 48 hrs by ELISA; format: functional, cell-based

## CCCCCc1cc2nc3ccc(N(C)C)cc3sc-2cc1=[N+](C)C.[I-]
GM15850 [1]
  inhibition: Dose-dependent effect
GM16216 [2]
  inhibition: Dose-dependent effect
GM15850 [3]
  Activity: Toxic
GM15850 [4]
  Activity: 19%
GM15850 [5]
  Activity: inactive
GM15850 [6]
  Activity: Active
GM16216 [7]
  Activity: 19%
GM16216 [8]
  Activity: 81%
GM16216 [9]
  Activity: inactive
GM15850 [10]
  Activity: 81%
GM16216 [11]
  Activity: Active
GM16216 [12]
  Activity: Toxic

## CCCCCCCCCCCCCCCCc1cc2nc3ccc(N(C)C)cc3sc-2cc1=[N+](C)C.[I-]
GM16216 [13]
  Activity: inactive
GM16216 [14]
  Activity: Active
GM16216 [15]
  Activity: Active
GM15850 [4]
  Activity: 14%
GM16216 [16]
  Activity: Non-Toxic
GM15850 [6]
  Activity: Active
GM16216 [7]
  Activity: 14%
GM16216 [17]
  inhibition: Active
GM15850 [18]
  Activity: Non-Toxic
GM16216 [8]
  Activity: 86%
GM15850 [10]
  Activity: 86%
GM16216 [11]
  Activity: Active
GM15850 [19]
  inhibition: Active
GM15850 [20]
  Activity: inactive
GM15850 [21]
  Activity: Active
GM15850 [22]
  Activity: Active

## CCCCCCCCCCCc1cc2nc3ccc(N(C)C)cc3sc-2cc1=[N+](C)C.[I-]
GM15850 [1]
  inhibition: Dose-dependent effect
GM16216 [2]
  inhibition: Dose-dependent effect
GM16216 [13]
  Activity: inactive
GM15850 [3]
  Activity: Toxic
GM16216 [15]
  Activity: Active
GM15850 [4]
  Activity: 18%
GM15850 [5]
  Activity: inactive
GM16216 [7]
  Activity: 18%
GM16216 [8]
  Activity: 82%
GM16216 [9]
  Activity: inactive
GM15850 [10]
  Activity: 82%
GM15850 [20]
  Activity: inactive
GM15850 [22]
  Activity: Active
GM16216 [12]
  Activity: Toxic

## CN(C)c1ccc2nc3ccc(=O)cc-3sc2c1
GM16216 [23]
  Activity: 122%
GM16216 [24]
  Activity: 113%
GM15850 [25]
  Activity: 113%
GM15850 [26]
  Activity: 122%
GM16216 [27]
  Activity: Active
GM16216 [28]
  Activity: 114%
GM15850 [29]
  Activity: 114%
GM15850 [30]
  Activity: 115%
GM15850 [31]
  Activity: 113%
GM15850 [4]
  Activity: 15%
GM15850 [32]
  Activity: 131%
GM16216 [7]
  Activity: 15%
GM16216 [33]
  Activity: 110%
GM16216 [34]
  Activity: 113%
GM15850 [35]
  Activity: Active
GM16216 [8]
  Activity: 85%
GM15850 [10]
  Activity: 85%
GM16216 [36]
  Activity: 131%
GM16216 [37]
  Activity: 115%
GM15850 [38]
  Activity: 115%
GM15850 [39]
  Activity: 111%
GM15850 [40]
  Activity: 117%
GM15850 [41]
  Activity: 110%
GM16216 [42]
  Activity: 115%
GM16216 [43]
  Activity: 117%
GM16216 [44]
  Activity: 111%

## CN(C)c1ccc2nc3ccc(=[N+](C)C)cc-3sc2c1
GM16216 [45]
  Activity: Active
GM15850 [1]
  inhibition: Dose-dependent effect
GM16216 [2]
  inhibition: Dose-dependent effect
GM15850 [5]
  Activity: inactive
GM15850 [6]
  Activity: Active
GM16216 [9]
  Activity: inactive
GM15850 [46]
  Activity: Active
GM16216 [11]
  Activity: Active
GM15850 [47]
  Activity: Active
GM16216 [48]
  Activity: Active
